In patent US9193722B2, “Tri-cyclic pyrazolopyridine kinase inhibitors” (Vertex Pharmaceuticals Incorporated, priority 2008, dated 2015):
One block for each compound: values may come before it.

Experiments:
Assay type in all cases: biochemical
PKC theta kinase = PKC theta kinase (Homo sapiens, UniProt Q04759); experiment: PKC theta kinase inhibition, coupled-enzyme (NADH absorbance) assay, Ki; details: 240 μM ATP, 18 nM PKC theta kinase, 30° C.
Procedure, shortened: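 Enzyme and compound equilibrated 10 min at 30 °C before reaction in HEPES pH 7.5 buffer with MgCl2, NaCl, EDTA and Brij. Activity tracked as NADH loss at 340 nm through a coupled system. Initial-rate data fitted by non-linear regression to give Ki.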

PKC delta kinase = PKC delta kinase (Homo sapiens, UniProt Q05655); experiment: PKC delta kinase inhibition, coupled-enzyme (NADH absorbance) assay, Ki; details: 150 μM ATP, 46 nM PKC delta kinase, 30° C.; read-out: Ki PKC delta
Sequence of PKC delta kinase (Q05655 whole entry): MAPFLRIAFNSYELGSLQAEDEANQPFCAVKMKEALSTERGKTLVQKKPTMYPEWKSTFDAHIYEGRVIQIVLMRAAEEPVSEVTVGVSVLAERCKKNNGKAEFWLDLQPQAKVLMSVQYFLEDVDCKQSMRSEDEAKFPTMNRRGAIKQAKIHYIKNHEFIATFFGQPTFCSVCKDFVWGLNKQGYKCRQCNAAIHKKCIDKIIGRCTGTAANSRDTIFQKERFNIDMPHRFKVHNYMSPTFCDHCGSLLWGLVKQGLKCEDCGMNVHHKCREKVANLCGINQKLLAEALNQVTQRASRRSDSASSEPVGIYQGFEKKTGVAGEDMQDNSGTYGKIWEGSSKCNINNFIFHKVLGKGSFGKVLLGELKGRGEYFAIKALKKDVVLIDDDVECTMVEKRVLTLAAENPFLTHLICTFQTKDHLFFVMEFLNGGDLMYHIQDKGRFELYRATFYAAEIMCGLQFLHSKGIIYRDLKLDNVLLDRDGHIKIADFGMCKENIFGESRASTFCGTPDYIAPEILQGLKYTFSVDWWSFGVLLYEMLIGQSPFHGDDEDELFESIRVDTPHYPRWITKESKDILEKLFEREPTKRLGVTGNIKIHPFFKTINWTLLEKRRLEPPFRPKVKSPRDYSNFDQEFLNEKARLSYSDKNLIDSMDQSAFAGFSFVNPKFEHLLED
Procedure, shortened: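 Enzyme and compound pre-equilibrated 10 min at 30° C before adding ATP to 150 μM final. Buffer: HEPES pH 7.5 (100 mM), 10 mM MgCl2, 25 mM NaCl, 0.1 mM EDTA, 0.01% Brij.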

PKC alpha kinase = PKC alpha kinase (Homo sapiens, UniProt P17252); experiment: PKC alpha kinase inhibition, coupled-enzyme (NADH absorbance) assay, Ki; details: 130 μM ATP, 4.5 nM PKC alpha kinase, 30° C.
Procedure, shortened: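 Ki derived by non-linear regression of initial rates from a coupled assay tracking NADH absorbance at 340 nm over 15 min at 30 °C. ATP was 130 μM final after a 10 min compound–enzyme preincubation in HEPES pH 7.5 buffer with MgCl2, CaCl2, NaCl, EDTA and Brij.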

Sequence of PKC theta kinase (Q04759 whole entry): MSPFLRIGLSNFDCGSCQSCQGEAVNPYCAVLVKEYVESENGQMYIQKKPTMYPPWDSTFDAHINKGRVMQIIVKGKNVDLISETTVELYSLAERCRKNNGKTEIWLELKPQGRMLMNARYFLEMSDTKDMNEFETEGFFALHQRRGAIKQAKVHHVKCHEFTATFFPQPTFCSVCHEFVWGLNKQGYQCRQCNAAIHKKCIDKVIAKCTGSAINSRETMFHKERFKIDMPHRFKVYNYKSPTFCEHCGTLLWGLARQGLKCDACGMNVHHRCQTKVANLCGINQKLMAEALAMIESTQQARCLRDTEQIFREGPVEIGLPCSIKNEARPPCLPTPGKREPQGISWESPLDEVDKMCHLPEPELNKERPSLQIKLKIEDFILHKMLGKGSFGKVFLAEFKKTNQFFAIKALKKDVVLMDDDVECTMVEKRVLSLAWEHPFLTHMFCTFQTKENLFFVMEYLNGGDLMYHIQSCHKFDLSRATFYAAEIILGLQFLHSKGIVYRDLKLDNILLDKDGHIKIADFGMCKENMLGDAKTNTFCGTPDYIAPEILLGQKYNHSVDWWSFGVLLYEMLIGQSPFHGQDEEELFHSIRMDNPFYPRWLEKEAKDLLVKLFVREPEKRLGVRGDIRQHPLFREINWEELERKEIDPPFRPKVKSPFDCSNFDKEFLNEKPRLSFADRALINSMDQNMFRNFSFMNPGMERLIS

SMILES: CNC(C1CCCN(c2ccc(F)c(-c3n[nH]c4ncccc34)n2)C1)C(C)(C)C (stereo not drawn) [Compound 408]
Ki (PKC theta kinase): < 500 nM
Ki (PKC delta kinase): > 1250 nM
Ki (PKC alpha kinase): > 1250 nM

SMILES: CC(C)CC1(CO)CN(c2ccc(C(F)(F)F)c(-c3n[nH]c4ncccc34)n2)CCC1N (stereo not drawn) [Compound 410]
Ki (PKC theta kinase): < 50 nM
Ki (PKC delta kinase): < 50 nM
Ki (PKC alpha kinase): < 500 nM

SMILES: CC(C)CC1(CO)CN(c2ccc(C(F)(F)F)c(-c3n[nH]c4ncccc34)n2)CCC1N (stereo not drawn) [Compound 411]
Ki (PKC theta kinase): < 500 nM
Ki (PKC delta kinase): < 2800 nM
Ki (PKC alpha kinase): < 2800 nM

SMILES: NCC1CCN(c2cc(C(F)(F)F)cc(-c3n[nH]c4ncccc34)n2)CC1 [Compound 412]
Ki (PKC theta kinase): < 500 nM
Ki (PKC delta kinase): > 1250 nM
Ki (PKC alpha kinase): > 1250 nM

SMILES: CC(C)CC1(CN)CN(c2ccc(C(F)(F)F)c(-c3n[nH]c4ncccc34)n2)C1 [Compound 413]
Ki (PKC theta kinase): > 700 nM
Ki (PKC delta kinase): > 1250 nM
Ki (PKC alpha kinase): > 1250 nM

SMILES: CC(=O)N1CCN(c2ccc(F)c(-c3n[nH]c4ncccc34)n2)CC1C(C)(O)C(C)C (stereo not drawn) [Compound 414]
Ki (PKC theta kinase): > 700 nM
Ki (PKC delta kinase): > 1250 nM
Ki (PKC alpha kinase): > 1250 nM

SMILES: CCOC(=O)N1CCN(c2ccc(F)c(-c3n[nH]c4ncccc34)n2)CC1C(C)(O)C(C)C (stereo not drawn) [Compound 418]
Ki (PKC theta kinase): > 700 nM
Ki (PKC delta kinase): > 1250 nM
Ki (PKC alpha kinase): > 1250 nM

SMILES: CC(C)CC1CN(c2cc(C(F)(F)F)cc(-c3n[nH]c4ncccc34)n2)CCC1N (stereo not drawn) [Compound 419]
Ki (PKC theta kinase): < 500 nM
Ki (PKC delta kinase): > 1250 nM
Ki (PKC alpha kinase): > 1250 nM

SMILES: NC[C@@H]1CCN(c2cc(C(F)(F)F)cc(-c3n[nH]c4ncccc34)n2)C1 [Compound 420]
Ki (PKC theta kinase): < 2800 nM
Ki (PKC delta kinase): > 1250 nM
Ki (PKC alpha kinase): > 1250 nM

SMILES: CC(C)(C)C(N)C1CCN(c2ccc(F)c(-c3n[nH]c4ncccc34)n2)C1 (stereo not drawn) [Compound 421]
Ki (PKC theta kinase): < 50 nM
Ki (PKC delta kinase): < 500 nM
Ki (PKC alpha kinase): > 1250 nM

SMILES: OC1CCCN(c2ccc(C(F)(F)F)c(-c3n[nH]c4ncccc34)n2)C1 (stereo not drawn) [Compound 423]
Ki (PKC theta kinase): > 700 nM
Ki (PKC delta kinase): > 1250 nM
Ki (PKC alpha kinase): > 1250 nM

SMILES: CC(C)C(C)(O)C1CN(c2ccc(F)c(-c3n[nH]c4ncccc34)n2)CCN1C(=O)OC(C)(C)C (stereo not drawn) [Compound 424]
Ki (PKC theta kinase): > 700 nM
Ki (PKC delta kinase): > 1250 nM
Ki (PKC alpha kinase): > 1250 nM

SMILES: CC(C)C(C)(O)C1CN(c2nc(-c3n[nH]c4ncccc34)c(F)cc2F)CCN1 (stereo not drawn) [Compound 425]
Ki (PKC theta kinase): < 1 nM
Ki (PKC delta kinase): < 50 nM
Ki (PKC alpha kinase): < 500 nM

SMILES: CC(C)C(C)(O)C1CN(c2cncc(-c3n[nH]c4ncccc34)n2)CCN1 (stereo not drawn) [Compound 426]
Ki (PKC theta kinase): < 50 nM
Ki (PKC delta kinase): < 500 nM
Ki (PKC alpha kinase): < 2800 nM

SMILES: CCC1(CC)CN(c2ccc(C(F)(F)F)c(-c3n[nH]c4ncccc34)n2)CCC1N (stereo not drawn) [Compound 427]
Ki (PKC theta kinase): < 50 nM
Ki (PKC delta kinase): < 500 nM
Ki (PKC alpha kinase): > 1250 nM

SMILES: CC1(C)CN(c2ccc(C(F)(F)F)c(-c3n[nH]c4ncccc34)n2)CCC1N (stereo not drawn) [Compound 428]
Ki (PKC theta kinase): < 500 nM
Ki (PKC delta kinase): < 500 nM
Ki (PKC alpha kinase): > 1250 nM

SMILES: CC(C)CC1(C#N)CN(c2ccc(C(F)(F)F)c(-c3n[nH]c4ncccc34)n2)C1 [Compound 429]
Ki (PKC theta kinase): > 700 nM
Ki (PKC delta kinase): > 1250 nM
Ki (PKC alpha kinase): > 1250 nM

SMILES: CC(C)CC1(C(N)=O)CN(c2ccc(C(F)(F)F)c(-c3n[nH]c4ncccc34)n2)C1 [Compound 430]
Ki (PKC theta kinase): > 700 nM
Ki (PKC delta kinase): > 1250 nM
Ki (PKC alpha kinase): > 1250 nM

SMILES: FC(F)(F)c1ccc(C2CCNCC2)nc1-c1n[nH]c2ncccc12 [Compound 431]
Ki (PKC theta kinase): > 700 nM
Ki (PKC delta kinase): > 1250 nM
Ki (PKC alpha kinase): > 1250 nM

SMILES: NCC1CCCN(c2cc(C(F)(F)F)cc(-c3n[nH]c4ncccc34)n2)C1 (stereo not drawn) [Compound 432]
Ki (PKC theta kinase): < 50 nM
Ki (PKC delta kinase): > 1250 nM
Ki (PKC alpha kinase): > 1250 nM

SMILES: NCC1CN(c2cc(C(F)(F)F)cc(-c3n[nH]c4ncccc34)n2)C1 [Compound 433]
Ki (PKC theta kinase): < 2800 nM
Ki (PKC delta kinase): > 1250 nM
Ki (PKC alpha kinase): > 1250 nM

SMILES: CCC1(CC(C)C)CN(c2ccc(C(F)(F)F)c(-c3n[nH]c4ncccc34)n2)CCC1N (stereo not drawn) [Compound 434]
Ki (PKC theta kinase): < 50 nM
Ki (PKC delta kinase): < 500 nM
Ki (PKC alpha kinase): < 500 nM

SMILES: CCCC1(C)CN(c2ccc(C(F)(F)F)c(-c3n[nH]c4ncccc34)n2)CCC1N (stereo not drawn) [Compound 435]
Ki (PKC theta kinase): < 50 nM
Ki (PKC delta kinase): < 500 nM
Ki (PKC alpha kinase): < 500 nM

Continued, values first:

Ki (PKC theta kinase): < 50 nM
Ki (PKC delta kinase): < 2800 nM
Ki (PKC alpha kinase): > 1250 nM
SMILES: CC(C)C(C)(O)C1CN(c2ccc(Cl)c(-c3n[nH]c4ncccc34)n2)CCN1 (stereo not drawn) [Compound 437]

Ki (PKC theta kinase): < 500 nM
Ki (PKC delta kinase): > 1250 nM
Ki (PKC alpha kinase): > 1250 nM
SMILES: CC(C)C1(C)OC(=O)N2CCN(c3ccc(F)c(-c4n[nH]c5ncccc45)n3)CC21 (stereo not drawn) [Compound 439]

Ki (PKC theta kinase): < 500 nM
Ki (PKC delta kinase): > 1250 nM
Ki (PKC alpha kinase): > 1250 nM
SMILES: Fc1ccc(C2CCNCC2)nc1-c1n[nH]c2ncccc12 [Compound 440]

Ki (PKC theta kinase): < 50 nM
Ki (PKC delta kinase): < 500 nM
Ki (PKC alpha kinase): > 1250 nM
SMILES: NC1CCN(c2cc(CO)cc(-c3n[nH]c4ncccc34)n2)CC1 [Compound 441]

Ki (PKC theta kinase): < 500 nM
Ki (PKC delta kinase): < 500 nM
Ki (PKC alpha kinase): > 1250 nM
SMILES: CC(C)C[C@H]1CN(c2cc(C#N)cc(-c3n[nH]c4ncccc34)n2)CCN1 [Compound 442]

Ki (PKC theta kinase): < 500 nM
Ki (PKC delta kinase): < 2800 nM
Ki (PKC alpha kinase): > 1250 nM
SMILES: OCc1cc(-c2n[nH]c3ncccc23)nc(N2CCNCC2)c1 [Compound 443]

Ki (PKC theta kinase): < 500 nM
Ki (PKC delta kinase): > 1250 nM
Ki (PKC alpha kinase): > 1250 nM
SMILES: CC(C)C(C)(O)C1CN(c2nc(-c3n[nH]c4ncccc34)c(F)cc2F)CCN1 (stereo not drawn) [Compound 444]

Ki (PKC theta kinase): < 1 nM
Ki (PKC delta kinase): < 50 nM
Ki (PKC alpha kinase): < 500 nM
SMILES: CC(C)[C@@](C)(O)[C@@H]1CN(c2nc(-c3n[nH]c4ncccc34)c(F)cc2F)CCN1 [Compound 445]

Ki (PKC theta kinase): > 700 nM
Ki (PKC delta kinase): > 1250 nM
Ki (PKC alpha kinase): > 1250 nM
SMILES: CC(C)CC1(C#N)CCN(c2ccc(C(F)(F)F)c(-c3n[nH]c4ncccc34)n2)CC1 [Compound 446]

Ki (PKC theta kinase): < 50 nM
Ki (PKC delta kinase): < 500 nM
Ki (PKC alpha kinase): > 1250 nM
SMILES: CCC1(C)CN(c2ccc(C(F)(F)F)c(-c3n[nH]c4ncccc34)n2)CCC1N (stereo not drawn) [Compound 447]

Ki (PKC theta kinase): < 500 nM
Ki (PKC delta kinase): < 2800 nM
Ki (PKC alpha kinase): > 1250 nM
SMILES: CCC(N)C1(C(F)(F)F)CCN(c2ccc(F)c(-c3n[nH]c4ncccc34)n2)C1 (stereo not drawn) [Compound 448]

Ki (PKC theta kinase): < 500 nM
Ki (PKC delta kinase): > 1250 nM
Ki (PKC alpha kinase): > 1250 nM
SMILES: CC(C)CC1CN(c2ccc(C(F)(F)F)c(-c3n[nH]c4ncccc34)n2)CCC1CC#N (stereo not drawn) [Compound 450]

Ki (PKC theta kinase): < 50 nM
Ki (PKC delta kinase): < 500 nM
Ki (PKC alpha kinase): < 2800 nM
SMILES: CC(C)C[C@H]1CN(c2cc(CO)cc(-c3n[nH]c4ncccc34)n2)CCN1 [Compound 451]

Ki (PKC theta kinase): < 50 nM
Ki (PKC delta kinase): > 1250 nM
Ki (PKC alpha kinase): > 1250 nM
SMILES: CC(C)CC1CN(c2ccc(F)c(-c3n[nH]c4ncccc34)n2)CCC1CC#N (stereo not drawn) [Compound 452]

Ki (PKC theta kinase): < 50 nM
Ki (PKC delta kinase): < 500 nM
Ki (PKC alpha kinase): > 1250 nM
SMILES: NCC1CCN(c2cc(CO)cc(-c3n[nH]c4ncccc34)n2)CC1 [Compound 453]

Ki (PKC theta kinase): < 50 nM
Ki (PKC delta kinase): < 500 nM
Ki (PKC alpha kinase): < 2800 nM
SMILES: CC(C)C(C)(O)C1CN(c2cc(CO)cc(-c3n[nH]c4ncccc34)n2)CCN1 (stereo not drawn) [Compound 454]

Ki (PKC theta kinase): > 700 nM
Ki (PKC delta kinase): > 1250 nM
Ki (PKC alpha kinase): > 1250 nM
SMILES: CC(C)CC1(C#N)CN(c2ccc(F)c(-c3n[nH]c4ncccc34)n2)C1 [Compound 456]

Ki (PKC theta kinase): > 700 nM
Ki (PKC delta kinase): > 1250 nM
Ki (PKC alpha kinase): > 1250 nM
SMILES: CC(C)CC1(CN)CN(c2ccc(F)c(-c3n[nH]c4ncccc34)n2)C1 [Compound 457]

Ki (PKC theta kinase): < 500 nM
Ki (PKC delta kinase): > 1250 nM
Ki (PKC alpha kinase): > 1250 nM
SMILES: N#CCCC1CN(c2ccc(F)c(-c3n[nH]c4ncccc34)n2)CCC1O (stereo not drawn) [Compound 458]
